Test results reported in patent US10745394B2, “8-azabicyclo[3.2.1]octane compounds as mu opioid receptor antagonists” (priority 2006, dated 2020).
Where two headings read alike, the source gives them in different places.

Tests used:
human mu opioid receptor [1] = molecular target: T1, human mu opioid receptor (Homo sapiens, UniProt P35372); assay: Human mu GTP-Eu nucleotide exchange assay (agonist mediated activation) in CHO-K1 membranes; assay type: biochemical; details: bound GTP-Eu relative to DAMGO (IA=100); read-out: intrinsic activity (IA)
T1 construct: expressed in transfected cells; host or cells: CHO-K1
Description: a. Mu Opioid Receptor Membrane Preparation:
Protein concentration was determined using a Bio-Rad Bradford Protein Assay kit. Membranes were stored in frozen aliquots at −80° C., until required. Lyophilized GTP-Eu and GDP were diluted to 10 μM and 2 mM, respectively, in double distilled H2O then mixed and permitted to sit at room temperature for 30 minutes prior to transfer to individual aliquots samples for storage at −20° C.
b. Human Mu GTP-Eu Nucleotide Exchange Assay
GTP-Eu nucleotide exchange assays were performed using the DELPHIA GTP-binding kit (Perkin/Elmer) in AcroWell 96 well filter plates according to the manufacturer's specifications. […] Test compounds were received as 10 mM stock solutions in DMSO, diluted to 400 μM into Assay Buffer containing 0.1% BSA, and serial (1:5) dilutions then made to generate ten concentrations of compound ranging from 40 pM^− 80 μM-GDP and GTP-Eu were diluted to 4 μM and 40 nM, respectively, in Assay Buffer. The assay was performed in a total volume of 100 μL containing 5 μg of membrane protein, test compound ranging from 10 pM-20 μM), 1 μM GDP, and 10 nM GTP-Eu diluted in 10 mM MgCl2, 50 mM NaCl, and 0.0125% BSA, (final assay concentrations). A DAMGO (Tyr-D-Ala-Gly-(methyl)Phe-Gly-ol) concentration-response curve (ranging from 12.8 pM-1 μM) was included on every plate.
Assay plates were prepared immediately prior to assay following the addition of 25 μL of Assay Buffer, 25 μL of test compound, and 25 μL GDP and GTP-Eu. The assay was initiated by the addition of 25 μL membrane protein and allowed to incubate for 30 minutes. The assay plates were then filtered with a Waters vacuum manifold connected to the house vacuum regulated to 10-2 in. Hg and washed with room temperature GTP Wash Solution ([…]). The bottoms of the plates were blotted to remove excess liquid. The plates were then immediately read to determine the amount of bound GTP-Eu by measuring Time Resolved Fluorescence (TRF) on a Packard Fusion Plate ReaderVehicle: DMSO not to exceed 1% final assay concentration.
The amount of bound GTP-Eu is proportional to the degree of activation of the mu opioid receptors by the test compound.

human mu opioid receptor [2] = molecular target: T1, human mu opioid receptor; assay: Radioligand binding assay, human mu opioid receptor; details: displacement of [3H]-Diprenorphine
[3] = tested on: morphine-induced analgesia / morphine-induced delayed gastrointestinal transit
[4] = following subcutaneous administration

T1 sequence (P35372 whole entry): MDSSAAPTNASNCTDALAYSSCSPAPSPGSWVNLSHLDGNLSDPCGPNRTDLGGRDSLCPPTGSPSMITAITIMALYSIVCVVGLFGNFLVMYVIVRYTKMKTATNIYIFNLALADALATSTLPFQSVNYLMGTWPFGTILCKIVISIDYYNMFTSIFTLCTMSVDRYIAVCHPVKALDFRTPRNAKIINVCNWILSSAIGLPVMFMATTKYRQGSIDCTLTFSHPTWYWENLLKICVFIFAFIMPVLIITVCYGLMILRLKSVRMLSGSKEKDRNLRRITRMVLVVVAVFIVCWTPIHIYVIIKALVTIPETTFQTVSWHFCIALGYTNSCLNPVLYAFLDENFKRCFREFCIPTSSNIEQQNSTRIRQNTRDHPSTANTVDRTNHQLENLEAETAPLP

SMILES | Emax (human mu opioid receptor [1]) [%] | pKi (human mu opioid receptor [2]) | peripheral selectivity (hotplate ID50 / intestinal transit ID50) ([3]; following oral administration) | peripheral selectivity (hotplate ID50 / intestinal transit ID50) [3, 4]
NC(=O)c1cccc([C@H]2C[C@H]3CC[C@@H](C2)N3CCN(CC2CCCCC2)C(=O)[C@@H](O)CO)c1 [Example 58, 3-endo-(8-{2-[cyclohexylmethyl-((S)-2,3-dihydroxy-propionyl)amino]ethyl}-8-aza-bicyclo[3.2.1]oct-3-yl)benzamide] | -3 | 9.9 | 35 | 300
O=C(CO)N(CCN1[C@@H]2CC[C@H]1C[C@@H](c1cccc(O)c1)C2)Cc1ccccc1 [Example 1, N-benzyl-2-hydroxy-N-{2-[3-endo-(3-hydroxyphenyl)-8-azabicyclo[3.2.1]oct-8-yl]ethyl}acetamide] | 6 | 10.1 |  | 
CS(=O)(=O)CC(=O)N(CCc1ccccc1)CCN1[C@@H]2CC[C@H]1C[C@@H](c1cccc(C(N)=O)c1)C2 [Example 136, 3-endo-(8-{2-[(2-methanesulfonylacetyl)phenethylamino]ethyl}-8-azabicyclo[3.2.1]oct-3-yl)-benzamide] | 14 | 9.8 |  | 
NC(=O)c1cccc([C@H]2C[C@H]3CC[C@@H](C2)N3CCN(CC2CCC(F)(F)CC2)C(=O)CO)c1 [Example 63, 3-endo-(8-{2-[(4,4-difluorocyclohexylmethyl)-(2-hydroxyacetyl)amino]ethyl}-8-azabicyclo[3.2.1]oct-3-yl)benzamide] |  |  | 22 | 22
NC(=O)c1cccc([C@H]2C[C@H]3CC[C@@H](C2)N3CCN(CCc2ccccc2)C(=O)CO)c1 [Example 59, 3-endo-(8-{2-[(2-hydroxyacetyl)phenethylamino]-ethyl}-8-azabicyclo[3.2.1]oct-3-yl)benzamide] | -2 |  |  | 
NC(=O)c1cccc([C@H]2C[C@H]3CC[C@@H](C2)N3CCN(CC2CCCCC2)C(=O)CO)c1 [Example 48B, 3-endo-(8-{2-[cyclohexylmethyl-(2-hydroxyacetyl)-amino]-ethyl}-8-azabicyclo[3.2.1]oct-3-yl)benzamide] |  |  | 42 | 30
NC(=O)c1cccc([C@H]2C[C@H]3CC[C@@H](C2)N3CCN(Cc2ccccc2)C(=O)CO)c1 [Example 46B, 3-endo-(8-{2-[benzyl-(2-hydroxyacetyl)-amino]ethyl}-8-azabicyclo[3.2.1]oct-3-yl)benzamide] | -3 | 10.0 |  | 
